Reference: patent publication US20250101023A1, “HETEROARYL DERIVATIVE AND USES THEREOF” (IUCF-HYU (INDUSTRY-UNIVERSITY COOPERATION FOUNDATION …, priority 2022, published 2025)

Key:
[1] = system: Pol II CTD (Ser2) phosphorylation; test: Western blot, Pol II CTD Ser2 phosphorylation; format: cell-based; details: SK-Br3 and HCC1954 cell lines, 40 and 200 nM, 2 hours
[2] = molecular target: CDK2/cyclin O (Homo sapiens (Human), UniProt P24941); test: Kinome-wide profiling; format: biochemical; details: read-out: % Residual Activity (mean)
[3] = molecular target: EPHA6 (Homo sapiens (Human), UniProt Q9UF33); test: Kinome-wide profiling; format: biochemical; details: read-out: % Residual Activity (mean)
[4] = molecular target: CDK17/cyclin Y (PCTK2) (Homo sapiens (Human), UniProt Q00537); test: Kinome-wide profiling; format: biochemical; details: read-out: % Residual Activity (mean)
[5] = molecular target: PAK4 (Homo sapiens (Human), UniProt O96013); test: Kinome-wide profiling; format: biochemical; details: read-out: % Residual Activity (mean)
[6] = molecular target: ERK7/MAPK15 (Homo sapiens (Human), UniProt Q8TD08); test: Kinome-wide profiling; format: biochemical; details: read-out: % Residual Activity (mean)
[7] = molecular target: TRKB (Homo sapiens (Human), UniProt Q16620); test: Kinome-wide profiling; format: biochemical; details: read-out: % Residual Activity (mean)
[8] = molecular target: LRRK2 (Homo sapiens (Human), UniProt Q5S007); test: Kinome-wide profiling; format: biochemical; details: read-out: % Residual Activity (mean)
LRRK2, sequence (Q5S007 whole entry): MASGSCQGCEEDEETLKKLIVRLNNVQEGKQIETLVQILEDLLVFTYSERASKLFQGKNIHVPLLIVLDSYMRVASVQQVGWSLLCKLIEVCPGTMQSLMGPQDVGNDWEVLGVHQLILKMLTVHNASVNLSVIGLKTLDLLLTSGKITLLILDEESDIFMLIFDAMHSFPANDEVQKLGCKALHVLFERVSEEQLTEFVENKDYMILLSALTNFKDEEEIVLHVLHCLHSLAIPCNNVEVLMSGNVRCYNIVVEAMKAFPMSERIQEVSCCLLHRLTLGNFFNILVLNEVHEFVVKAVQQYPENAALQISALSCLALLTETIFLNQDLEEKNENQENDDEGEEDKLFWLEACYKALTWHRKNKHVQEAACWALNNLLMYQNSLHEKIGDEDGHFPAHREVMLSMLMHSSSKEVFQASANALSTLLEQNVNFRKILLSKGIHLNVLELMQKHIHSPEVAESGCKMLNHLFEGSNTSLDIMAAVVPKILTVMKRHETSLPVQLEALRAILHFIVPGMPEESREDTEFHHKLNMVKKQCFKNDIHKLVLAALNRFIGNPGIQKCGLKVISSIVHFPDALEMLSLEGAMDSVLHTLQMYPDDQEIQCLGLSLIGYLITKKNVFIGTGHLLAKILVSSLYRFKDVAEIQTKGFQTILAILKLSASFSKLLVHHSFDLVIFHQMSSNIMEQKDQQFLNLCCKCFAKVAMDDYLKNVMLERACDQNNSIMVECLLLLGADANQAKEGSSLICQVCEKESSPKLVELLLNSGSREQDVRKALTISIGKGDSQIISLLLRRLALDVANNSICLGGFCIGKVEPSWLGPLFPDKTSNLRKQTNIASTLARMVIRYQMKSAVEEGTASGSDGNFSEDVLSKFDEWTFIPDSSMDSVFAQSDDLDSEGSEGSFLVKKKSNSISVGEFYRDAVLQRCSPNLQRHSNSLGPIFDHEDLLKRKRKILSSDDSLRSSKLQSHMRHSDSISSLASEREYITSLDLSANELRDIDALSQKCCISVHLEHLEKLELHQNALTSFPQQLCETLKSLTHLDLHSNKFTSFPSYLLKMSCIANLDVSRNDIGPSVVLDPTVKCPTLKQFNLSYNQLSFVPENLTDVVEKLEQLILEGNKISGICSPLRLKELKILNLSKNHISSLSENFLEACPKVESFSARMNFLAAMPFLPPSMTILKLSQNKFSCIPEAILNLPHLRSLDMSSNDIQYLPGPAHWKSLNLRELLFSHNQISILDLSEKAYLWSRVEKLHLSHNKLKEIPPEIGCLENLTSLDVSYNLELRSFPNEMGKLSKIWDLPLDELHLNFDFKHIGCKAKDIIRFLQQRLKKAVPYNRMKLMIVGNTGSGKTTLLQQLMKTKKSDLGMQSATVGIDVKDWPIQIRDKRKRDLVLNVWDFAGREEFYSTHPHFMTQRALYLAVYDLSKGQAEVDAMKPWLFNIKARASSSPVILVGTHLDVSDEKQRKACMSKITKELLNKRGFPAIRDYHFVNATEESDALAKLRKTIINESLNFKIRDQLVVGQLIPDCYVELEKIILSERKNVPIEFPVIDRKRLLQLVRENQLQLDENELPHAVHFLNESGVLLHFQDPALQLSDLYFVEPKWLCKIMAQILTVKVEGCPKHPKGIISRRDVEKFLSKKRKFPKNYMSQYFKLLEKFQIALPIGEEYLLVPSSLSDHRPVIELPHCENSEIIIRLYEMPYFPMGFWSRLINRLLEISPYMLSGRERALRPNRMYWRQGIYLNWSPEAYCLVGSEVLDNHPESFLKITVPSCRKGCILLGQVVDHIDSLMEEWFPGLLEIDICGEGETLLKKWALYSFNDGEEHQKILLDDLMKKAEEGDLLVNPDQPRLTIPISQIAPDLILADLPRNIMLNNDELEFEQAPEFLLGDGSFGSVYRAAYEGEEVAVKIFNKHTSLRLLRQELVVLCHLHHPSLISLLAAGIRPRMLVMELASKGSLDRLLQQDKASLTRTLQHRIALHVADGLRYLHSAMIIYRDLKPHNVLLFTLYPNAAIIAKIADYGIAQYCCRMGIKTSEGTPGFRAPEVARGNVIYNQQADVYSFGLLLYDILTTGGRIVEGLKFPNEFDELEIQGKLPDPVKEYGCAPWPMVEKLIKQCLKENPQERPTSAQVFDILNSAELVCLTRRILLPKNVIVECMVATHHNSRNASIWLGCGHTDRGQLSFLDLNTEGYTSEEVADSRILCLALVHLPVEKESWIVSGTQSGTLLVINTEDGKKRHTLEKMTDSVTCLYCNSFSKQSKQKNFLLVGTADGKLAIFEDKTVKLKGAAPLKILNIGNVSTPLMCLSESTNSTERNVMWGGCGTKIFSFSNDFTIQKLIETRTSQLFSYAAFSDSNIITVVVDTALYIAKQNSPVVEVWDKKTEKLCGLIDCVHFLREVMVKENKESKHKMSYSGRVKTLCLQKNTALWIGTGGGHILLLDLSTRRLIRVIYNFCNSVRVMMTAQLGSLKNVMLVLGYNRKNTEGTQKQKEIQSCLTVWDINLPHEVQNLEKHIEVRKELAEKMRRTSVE

[9] = molecular target: CDK4/cyclin D2 (Homo sapiens (Human), UniProt P11802); test: Kinome-wide profiling; format: biochemical; details: read-out: % Residual Activity (mean)
[10] = molecular target: CK1g1 (Homo sapiens (Human), UniProt Q9HCP0); test: Kinome-wide profiling; format: biochemical; details: read-out: % Residual Activity (mean)
[11] = molecular target: STK25/YSK1 (Homo sapiens (Human), UniProt O00506); test: Kinome-wide profiling; format: biochemical; details: read-out: % Residual Activity (mean)
STK25/YSK1, sequence (O00506 whole entry): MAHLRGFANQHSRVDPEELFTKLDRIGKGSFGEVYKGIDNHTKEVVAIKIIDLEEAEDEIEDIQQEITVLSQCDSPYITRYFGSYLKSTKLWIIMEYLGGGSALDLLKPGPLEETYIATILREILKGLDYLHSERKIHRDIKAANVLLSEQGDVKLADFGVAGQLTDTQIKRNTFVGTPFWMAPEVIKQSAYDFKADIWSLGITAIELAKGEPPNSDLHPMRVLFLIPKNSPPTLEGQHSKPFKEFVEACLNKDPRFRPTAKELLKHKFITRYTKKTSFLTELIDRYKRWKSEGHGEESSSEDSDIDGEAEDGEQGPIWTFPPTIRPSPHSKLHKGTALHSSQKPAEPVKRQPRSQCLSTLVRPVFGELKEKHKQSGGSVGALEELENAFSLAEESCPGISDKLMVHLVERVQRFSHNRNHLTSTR

[12] = molecular target: CDK6/cyclin D1 (Homo sapiens (Human), UniProt Q00534); test: Kinome-wide profiling; format: biochemical; details: read-out: % Residual Activity (mean)
CDK6/cyclin D1, sequence (Q00534 whole entry): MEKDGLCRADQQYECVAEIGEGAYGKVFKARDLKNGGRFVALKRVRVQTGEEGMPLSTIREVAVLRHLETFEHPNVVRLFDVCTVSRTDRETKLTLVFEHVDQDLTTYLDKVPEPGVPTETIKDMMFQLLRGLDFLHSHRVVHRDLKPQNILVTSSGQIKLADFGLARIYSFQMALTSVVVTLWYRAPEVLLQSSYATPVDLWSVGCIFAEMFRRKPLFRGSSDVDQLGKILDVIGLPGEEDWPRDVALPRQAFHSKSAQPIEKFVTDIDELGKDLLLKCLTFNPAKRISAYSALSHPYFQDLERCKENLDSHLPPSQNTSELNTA
CDK6/cyclin D1, sequence (P24385 whole entry partner): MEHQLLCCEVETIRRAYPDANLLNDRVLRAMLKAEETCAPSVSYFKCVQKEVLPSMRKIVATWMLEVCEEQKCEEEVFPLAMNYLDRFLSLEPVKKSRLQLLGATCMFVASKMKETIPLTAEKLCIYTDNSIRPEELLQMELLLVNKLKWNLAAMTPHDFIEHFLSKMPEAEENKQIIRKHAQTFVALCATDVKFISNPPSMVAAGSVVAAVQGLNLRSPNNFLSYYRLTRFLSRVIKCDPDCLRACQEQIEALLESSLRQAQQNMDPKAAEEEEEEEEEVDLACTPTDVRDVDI

[13] = molecular target: Aurora A (Homo sapiens (Human), UniProt O14965); test: Kinome-wide profiling; format: biochemical; details: read-out: % Residual Activity (mean)
[14] = molecular target: TIE2/TEK (Homo sapiens (Human), UniProt Q02763); test: Kinome-wide profiling; format: biochemical; details: read-out: % Residual Activity (mean)
[15] = molecular target: FLT1/VEGFR1 (Homo sapiens (Human), UniProt P17948); test: Kinome-wide profiling; format: biochemical; details: read-out: % Residual Activity (mean)
[16] = molecular target: STK22D/TSSK1 (Homo sapiens (Human), UniProt Q9BXA7); test: Kinome-wide profiling; format: biochemical; details: read-out: % Residual Activity (mean)
[17] = molecular target: JNK1 (Homo sapiens (Human), UniProt P45983); test: Kinome-wide profiling; format: biochemical; details: read-out: % Residual Activity (mean)
[18] = molecular target: GRK7 (Homo sapiens (Human), UniProt Q8WTQ7); test: Kinome-wide profiling; format: biochemical; details: read-out: % Residual Activity (mean)
[19] = molecular target: CAMK1g (Homo sapiens (Human), UniProt Q96NX5); test: Kinome-wide profiling; format: biochemical; details: read-out: % Residual Activity (mean)
[20] = molecular target: MLCK2/MYLK2 (Homo sapiens (Human), UniProt Q9H1R3); test: Kinome-wide profiling; format: biochemical; details: read-out: % Residual Activity (mean)
[21] = molecular target: CAMK2d (Homo sapiens (Human), UniProt Q13557); test: Kinome-wide profiling; format: biochemical; details: read-out: % Residual Activity (mean)
[22] = molecular target: PKCa (Homo sapiens (Human), UniProt P17252); test: Kinome-wide profiling; format: biochemical; details: read-out: % Residual Activity (mean)
[23] = molecular target: BLK (Homo sapiens (Human), UniProt P51451); test: Kinome-wide profiling; format: biochemical; details: read-out: % Residual Activity (mean)
[24] = molecular target: SLK/STK2 (Homo sapiens (Human), UniProt Q9H2G2); test: Kinome-wide profiling; format: biochemical; details: read-out: % Residual Activity (mean)
[25] = molecular target: LIMK2 (Homo sapiens (Human), UniProt P53671); test: Kinome-wide profiling; format: biochemical; details: read-out: % Residual Activity (mean)
[26] = molecular target: PRKX (Homo sapiens (Human), UniProt P51817); test: Kinome-wide profiling; format: biochemical; details: read-out: % Residual Activity (mean)
[27] = molecular target: Haspin (Homo sapiens (Human), UniProt Q8TF76); test: Kinome-wide profiling; format: biochemical; details: read-out: % Residual Activity (mean)
[28] = molecular target: HIPK2 (Homo sapiens (Human), UniProt Q9H2X6); test: Kinome-wide profiling; format: biochemical; details: read-out: % Residual Activity (mean)
[29] = molecular target: DDR2 (Homo sapiens (Human), UniProt Q16832); test: Kinome-wide profiling; format: biochemical; details: read-out: % Residual Activity (mean)
DDR2, sequence (Q16832 22-855): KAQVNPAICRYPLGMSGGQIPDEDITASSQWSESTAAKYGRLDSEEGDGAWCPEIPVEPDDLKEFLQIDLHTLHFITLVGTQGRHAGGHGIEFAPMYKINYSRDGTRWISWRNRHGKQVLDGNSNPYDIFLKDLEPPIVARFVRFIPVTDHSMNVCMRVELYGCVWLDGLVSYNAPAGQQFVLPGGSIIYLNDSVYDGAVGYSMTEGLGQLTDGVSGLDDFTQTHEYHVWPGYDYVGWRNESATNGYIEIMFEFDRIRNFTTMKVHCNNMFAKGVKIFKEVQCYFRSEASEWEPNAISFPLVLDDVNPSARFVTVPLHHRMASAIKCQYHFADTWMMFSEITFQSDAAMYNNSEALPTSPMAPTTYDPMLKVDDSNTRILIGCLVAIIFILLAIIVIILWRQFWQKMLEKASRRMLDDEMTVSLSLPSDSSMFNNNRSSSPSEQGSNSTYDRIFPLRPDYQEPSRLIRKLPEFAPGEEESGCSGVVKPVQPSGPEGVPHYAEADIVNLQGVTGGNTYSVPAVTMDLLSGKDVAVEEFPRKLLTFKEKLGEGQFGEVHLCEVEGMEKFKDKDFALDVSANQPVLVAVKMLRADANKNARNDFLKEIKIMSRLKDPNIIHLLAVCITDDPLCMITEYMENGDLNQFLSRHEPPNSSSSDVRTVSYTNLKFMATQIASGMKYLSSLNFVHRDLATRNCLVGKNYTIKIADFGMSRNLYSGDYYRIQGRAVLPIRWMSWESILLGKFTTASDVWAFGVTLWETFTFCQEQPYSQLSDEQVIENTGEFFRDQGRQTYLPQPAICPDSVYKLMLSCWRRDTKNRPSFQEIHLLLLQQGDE

[30] = molecular target: VRK1 (Homo sapiens (Human), UniProt Q99986); test: Kinome-wide profiling; format: biochemical; details: read-out: % Residual Activity (mean)
[31] = molecular target: GRK4 (Homo sapiens (Human), UniProt P32298); test: Kinome-wide profiling; format: biochemical; details: read-out: % Residual Activity (mean)
[32] = molecular target: MEKK2 (Homo sapiens (Human), UniProt Q9Y2U5); test: Kinome-wide profiling; format: biochemical; details: read-out: % Residual Activity (mean)
[33] = molecular target: TSSK3/STK22C (Homo sapiens (Human), UniProt Q96PN8); test: Kinome-wide profiling; format: biochemical; details: read-out: % Residual Activity (mean)
[34] = molecular target: HIPK3 (Homo sapiens (Human), UniProt Q9H422); test: Kinome-wide profiling; format: biochemical; details: read-out: % Residual Activity (mean)
[35] = molecular target: TGFBR2 (Homo sapiens (Human), UniProt P37173); test: Kinome-wide profiling; format: biochemical; details: read-out: % Residual Activity (mean)
[36] = molecular target: AKT1 (Homo sapiens (Human), UniProt P31749); test: Kinome-wide profiling; format: biochemical; details: read-out: % Residual Activity (mean)
[37] = molecular target: MKK7 (Homo sapiens (Human), UniProt O14733); test: Kinome-wide profiling; format: biochemical; details: read-out: % Residual Activity (mean)
[38] = molecular target: VRK2 (Homo sapiens (Human), UniProt Q86Y07); test: Kinome-wide profiling; format: biochemical; details: read-out: % Residual Activity (mean)
[39] = molecular target: GRK2 (Homo sapiens (Human), UniProt P25098); test: Kinome-wide profiling; format: biochemical; details: read-out: % Residual Activity (mean)

With CCn1cnc2c(NCc3ccc(-c4ccccn4)nc3)nc(-c3ccc(N)nc3)nc21 [Example 53, N-([2,2′-bipyridin]-5-ylmethyl)-2-(6-aminopyridin-3-yl)-9-ethyl-9H-purin-6-amine] as the compound, how does the “Pol II CTD (Ser2) phosphorylation” value [1] read?
The value was “inhibited Pol II CTD (Ser2) phosphorylation”.

What about the “Pol II CTD (Ser2) phosphorylation” value ([1]; listed as Compound 53) of the same compound?
The value was “strong dose-dependent suppression of Pol II phosphorylation”.

What about the remaining activity at 10 µM [2] of the same compound?
The remaining activity at 10 µM was 0.54%.

And the remaining activity at 10 µM [3]?
Its remaining activity at 10 µM is 3.04%.

And the remaining activity at 10 µM [4]?
Its remaining activity at 10 µM is 7.25%.

And the remaining activity at 10 µM [5]?
The remaining activity at 10 µM was 12.9%.

What about the remaining activity at 10 µM [6] of the same compound?
The remaining activity at 10 µM was 13.5%.

And the remaining activity at 10 µM [7]?
Its remaining activity at 10 µM is 16.5%.

And the remaining activity at 10 µM [8]?
Its remaining activity at 10 µM is 17.8%.

And the remaining activity at 10 µM [9]?
The remaining activity at 10 µM was 21.8%.

And the remaining activity at 10 µM [10]?
The remaining activity at 10 µM was 22.9%.

What about the remaining activity at 10 µM [11] of the same compound?
The remaining activity at 10 µM was 23.1%.

What about the remaining activity at 10 µM [12] of the same compound?
Its remaining activity at 10 µM is 24.2%.

And the remaining activity at 10 µM [13]?
Its remaining activity at 10 µM is 33.4%.

And the remaining activity at 10 µM [14]?
Its remaining activity at 10 µM is 34.8%.

What about the remaining activity at 10 µM [15] of the same compound?
The remaining activity at 10 µM was 36.3%.

What about the remaining activity at 10 µM [16] of the same compound?
The remaining activity at 10 µM was 38%.

What about the remaining activity at 10 µM [17] of the same compound?
The remaining activity at 10 µM was 41.6%.

And the remaining activity at 10 µM [18]?
Its remaining activity at 10 µM is 49.7%.

And the remaining activity at 10 µM [19]?
The remaining activity at 10 µM was 54.3%.

What about the remaining activity at 10 µM [20] of the same compound?
The remaining activity at 10 µM was 60%.

And the remaining activity at 10 µM [21]?
The remaining activity at 10 µM was 61.7%.

What about the remaining activity at 10 µM [22] of the same compound?
The remaining activity at 10 µM was 62.4%.

What about the remaining activity at 10 µM [23] of the same compound?
Its remaining activity at 10 µM is 66.8%.

And the remaining activity at 10 µM [24]?
The remaining activity at 10 µM was 69.5%.

What about the remaining activity at 10 µM [25] of the same compound?
The remaining activity at 10 µM was 76.5%.

What about the remaining activity at 10 µM [26] of the same compound?
The remaining activity at 10 µM was 79.2%.

And the remaining activity at 10 µM [27]?
Its remaining activity at 10 µM is 79.4%.

What about the remaining activity at 10 µM [28] of the same compound?
Its remaining activity at 10 µM is 81.3%.

What about the remaining activity at 10 µM [29] of the same compound?
Its remaining activity at 10 µM is 87.2%.

What about the remaining activity at 10 µM [30] of the same compound?
The remaining activity at 10 µM was 87.3%.

And the remaining activity at 10 µM [31]?
The remaining activity at 10 µM was 88.3%.

What about the remaining activity at 10 µM [32] of the same compound?
Its remaining activity at 10 µM is 90%.

And the remaining activity at 10 µM [33]?
The remaining activity at 10 µM was 91.5%.

And the remaining activity at 10 µM [34]?
The remaining activity at 10 µM was 94.1%.

What about the remaining activity at 10 µM [35] of the same compound?
The remaining activity at 10 µM was 94.5%.

What about the remaining activity at 10 µM [36] of the same compound?
Its remaining activity at 10 µM is 94.9%.

What about the remaining activity at 10 µM [37] of the same compound?
Its remaining activity at 10 µM is 96.3%.

And the remaining activity at 10 µM [38]?
The remaining activity at 10 µM was 96.6%.

And the remaining activity at 10 µM [39]?
Its remaining activity at 10 µM is 99.1%.
